The record followed here is patent US5089494A, “4-phenylphthalazine derivatives which inhibit platelet aggregation” (Mitsubishi Kasei Corporation, priority 1990, dated 1992).

For test [1], the system named is platelet aggregation. Briefly: Platelet aggregation-inhibitory activity in vitro (collagen-induced, rat platelet rich plasma). The format is cell-based. The note with it: for inhibition at 1 µM / inhibition at 0.1 µM / inhibition at 0.3 µM: read-out: in vitro Inhibitory ratio; for inhibition at 0.3 µM: 3 × 10^-7 M. The procedure: Platelet aggregation-inhibitory activity in vitro
Rat arterial blood was centrifuged to obtain platelet rich plasma.
Platelet aggregation inhibitory ratio was calculated by the following formula: [formula] Tc: Aggregation degree where only a solvent was added. Ts: Aggregation degree where a solution of the test compound was added.

Test [2] concerns platelet aggregation. Briefly: Platelet aggregation inhibitory activity ex vivo (by oral administration). Format: in vivo, male Wistar ST rats. The note with it: 1 hour, collagen 7 to 10 μg/ml, rat. The procedure: Platelet aggregation inhibitory activity ex vivo (by oral administration)
A group of 8 male Wistar ST rats each weighing about 250 grams were used. To the test animal was orally administered 4 ml/kg of a solution made by suspending a test compound in 1% aqueous tragacanth solution, and one hour later blood was collected from common carotid artery with a cannula. […] The residue was further centrifuged by […] for 15 minutes and the supernatant was recovered as poor platelet plasma (PPP). The plasma samples were used for assaying the platelet aggregating ability.
As an aggregation inducer, 7 to 10 μg/ml of collagen (Hormon-Chemie) was used.
Platelet Aggregation-inhibitory ratio was calculated by the following formula: [formula] A: Aggregating ratio of the group (control) in which only 1% aqueous tragacanth solution was administered.
B: Aggregating ratio of the group in which a solution of the test compound in tragacanth solution was administered.

The test system of test [3] is rat left coronary artery ligation-induced cardiac infarction. As to the kind of experiment: Activity to rat left coronary artery ligation-induced cardiac infarction. The format is in vivo, male SD rats. As to conditions: 60 minutes prior to ligation. The text has this:
Activity of the compounds (I) to rat left coronary artery ligation-induced cardiac infarction
A group of 8 male SD rats weighing 200 to 250 g were used. The rats were fixed at the dosal position under light ether paralysis, subjected to longitudinal incission in about 1.5 cm along the sternal left line to make thoractonomy under breaking the heart sac and exposing the heart. After ligating the left main coronary artery at 1 to 2 mm from the origin with black blade silk suture (Hama Ika Kogyo, 4-0), the heart was returned at the original position and the breast was closed immediately. The bilateral breast was pressed to exclude the air in the thoracic cavity to resume respiration. […] Twenty-four hours after ligation, the blood was collected from the ventral vena cava, and the rat was killed by complete bleeding. The heart was taken out, and the cross circular slice (about 2 mm) at the central part of the heart was incubated at 37° C. in the dark for 20 minutes in 20 ml of 1% solution of TTC (tryphenyl tetrazolium chloride, Wako Junyaku) in 0.09 M phosphate buffer (pH 8.6). The slice was photographed under a stereoscopic microscope, and the colored slides were prepared therefrom. The slides were projected on the wall, and the sections, the infarction parts (TTC non-dyed part) and non-infarction parts (TTC dyed part), were traced. So, the area of the infarction part in the total section area was calculated. A solution made by suspending the test compound in 1% aqueous tragacanth solution was orally administered 60 minutes prior to the coronary artery ligation. [formula] A: Infarction ratio where only 1% tragacanth solution was administered for control.
B: Infarction ratio where the tragacanth solution containing the test compound was administered.

Structures are written as SMILES.

For the compound `CC(Cc1ccccc1)Nc1nnc(-c2ccccc2)c2ccccc12` (centres unmarked) [Control 4, reference compound], in the test with platelet aggregation [1] (10^-6 M), the inhibition at 1 µM was found to be 7.1%.

In the case of `c1ccc(-c2nnc(NC3(c4ccccc4)CCCCC3)c3ccccc23)cc1` [compound 136], the inhibition at 0.1 µM with platelet aggregation [1] (10^-7 M) stood at 94.7%.

For the compound `Cc1ccc(C(C)(C)Nc2nnc(-c3ccccc3)c3ccccc23)cc1` [compound 166], the inhibition at 1 µM in the test on platelet aggregation [1] (10^-6 M) turned out to be 100%. For the same compound, in the test on platelet aggregation [1] (10^-7 M), the inhibition at 0.1 µM is 100%.

Consider `COc1ccc(C(C)Nc2nnc(-c3ccccc3)c3ccccc23)cc1` (racemic) [69 (DL)], for which the inhibition at 0.3 µM in the test with platelet aggregation [1] is 74.7%. Besides, the inhibition at 0.1 µM with platelet aggregation [1] (10^-7 M) was determined as 21%.

Regarding `CC(Nc1nnc(-c2ccccc2)c2ccccc12)c1ccc(Cl)cc1` (racemic) [80 (DL)], in the test on platelet aggregation [1], the inhibition at 0.3 µM came out at 93.3%. Also, the inhibition at 0.1 µM with platelet aggregation [1] (10^-7 M) was 26.3%.

With `COc1ccc(C(C)Nc2nnc(-c3ccccc3)c3ccccc23)cc1OC` (racemic) [78 (DL)], the inhibition at 0.3 µM with platelet aggregation [1] came out at 93.6%. Further, the inhibition at 0.1 µM with platelet aggregation [1] (10^-7 M) was found to be 6.2%.

On to `c1ccc(CCCNc2nnc(-c3ccccc3)c3ccccc23)cc1` [Control 3, reference compound], for which the inhibition at 1 µM in the test with platelet aggregation [1] (10^-6 M) was 40.7%. Besides, the inhibition at 0.1 µM in the test with platelet aggregation [1] (10^-7 M) was found to be 12.6%.

`CCCCC(Nc1nnc(-c2ccccc2)c2ccccc12)c1ccccc1` (racemic) [5 (DL)]: the inhibition at 1 µM in the test on platelet aggregation [1] (10^-6 M) is 98.4%. Moreover, in the test on platelet aggregation [1] (10^-7 M), the inhibition at 0.1 µM turned out to be 20.6%.

For the compound `CC(Nc1nnc(-c2ccccc2)c2ccccc12)c1ccccc1Cl` (racemic) [82 (DL)], in the test on platelet aggregation [1], the inhibition at 0.3 µM is 58.5%. Moreover, the inhibition at 1 µM with platelet aggregation [1] (10^-6 M) is 65.5%.

Take `CC(Nc1nnc(-c2ccccc2)c2ccccc12)c1cccc(Cl)c1` (racemic) [81 (DL)]: the inhibition at 1 µM with platelet aggregation [1] (10^-6 M) was 98.3%. In the test with platelet aggregation [1] (10^-7 M), the inhibition at 0.1 µM stood at 40.7%. Moreover, the “ex vivo Inhibitory ratio (p.o.)” value in the test on platelet aggregation [2] (10 mg/kg p.o.) is given as 72.5%.

Take `CC(Nc1nnc(-c2ccccc2)c2ccccc12)c1ccc(F)cc1` (racemic) [85 (DL)]: the inhibition at 0.3 µM with platelet aggregation [1] stood at 94.1%. For the same compound, the inhibition at 0.1 µM in the test on platelet aggregation [1] (10^-7 M) came out at 10.2%.

As to `CC(=O)Oc1ccccc1C(=O)O` [Aspirin, reference compound], the “Cardiac infarction inhibitory ratio” value in test [3] (100 mg/kg p.o.) worked out at 10.7%.

With `CC(Nc1nnc(-c2ccccc2)c2ccccc12)c1ccccc1F` (racemic) [87 (DL)], the inhibition at 1 µM in the test on platelet aggregation [1] (10^-6 M) came to 52.4%.

As for `CC(Nc1nnc(-c2ccccc2)c2ccccc12)c1ccc(C(F)(F)F)cc1` (racemic) [91 (DL)], in the test on platelet aggregation [1] (10^-6 M), the inhibition at 1 µM is 22.5%.

As to `CC(Nc1nnc(-c2ccccc2)c2ccccc12)c1cccc(F)c1` (racemic) [86 (DL)], the inhibition at 1 µM in the test on platelet aggregation [1] (10^-6 M) stood at 100%. The “ex vivo Inhibitory ratio (p.o.)” value with platelet aggregation [2] (1 mg/kg p.o.) was found to be 40.5%.

For the compound `CC(Nc1nnc(-c2ccccc2)c2ccccc12)c1cccc(C(F)(F)F)c1` (racemic) [92 (DL)], in the test on platelet aggregation [1] (10^-6 M), the inhibition at 1 µM worked out at 89.5%. The inhibition at 0.1 µM in the test with platelet aggregation [1] (10^-7 M) was 1.5%.

Turning to `COc1cccc(C(C)Nc2nnc(-c3ccccc3)c3ccccc23)c1` (racemic) [72 (DL)], the inhibition at 1 µM with platelet aggregation [1] (10^-6 M) was 94.8%. The inhibition at 0.1 µM with platelet aggregation [1] (10^-7 M) was determined as 14.9%.

Turning to `Cc1ccc(C(C)Nc2nnc(-c3ccccc3)c3ccccc23)cc1` (racemic) [56 (DL)], the inhibition at 0.1 µM in the test on platelet aggregation [1] (10^-7 M) turned out to be 92.9%.

As to `CC(Nc1nnc(-c2ccccc2)c2ccccc12)c1ccc2c(c1)OCO2` (racemic) [79 (DL)], the inhibition at 0.3 µM in the test with platelet aggregation [1] was 95.3%. The inhibition at 0.1 µM in the test with platelet aggregation [1] (10^-7 M) is 6.3%.

On to `C[C@@H](Nc1nnc(-c2ccccc2)c2ccccc12)c1ccccc1` [1 (D), D-1-α-methylbenzylamino-4-phenylphthalazine], for which the “Cardiac infarction inhibitory ratio” value in test [3] (2 mg/kg p.o.) was 81.1%; in test [3] (10 mg/kg p.o.), 76.6%. Also, the “in vitro Inhibitory ratio” value came out at 100% in the test with platelet aggregation [1] (10^-6 M, 1 µM) and 100% in the test with platelet aggregation [1] (10^-7 M, 0.1 µM). Besides, the “ex vivo Inhibitory ratio (p.o.)” value in the test on platelet aggregation [2] (1 mg/kg p.o.) is 65.5%; with platelet aggregation [2] (3 mg/kg p.o.), 80.2%; in the test with platelet aggregation [2] (10 mg/kg p.o.) it was 88.5%.

As to `CCc1ccc(C(C)Nc2nnc(-c3ccccc3)c3ccccc23)cc1` (racemic) [59 (DL)], the inhibition at 0.1 µM in the test with platelet aggregation [1] (10^-7 M) was determined as 56.5%.

In the case of `Cc1cccc(C(C)Nc2nnc(-c3ccccc3)c3ccccc23)c1` (racemic) [57 (DL)], the inhibition at 0.1 µM with platelet aggregation [1] (10^-7 M) was 90.3%. Also, the “ex vivo Inhibitory ratio (p.o.)” value in the test on platelet aggregation [2] (1 mg/kg p.o.) is given as 61.8%.

In the case of `CCC(Nc1nnc(-c2ccccc2)c2ccccc12)c1ccccc1` (racemic) [2 (DL)], the inhibition at 1 µM in the test on platelet aggregation [1] (10^-6 M) stood at 96.4%. Besides, the inhibition at 0.1 µM in the test with platelet aggregation [1] (10^-7 M) was 100%. Also, the “ex vivo Inhibitory ratio (p.o.)” value was found to be 37.8% with platelet aggregation [2] (1 mg/kg p.o.), 52.3% in the test with platelet aggregation [2] (3 mg/kg p.o.) and 94.5% in the test with platelet aggregation [2] (10 mg/kg p.o.).

Take `COc1ccccc1C(C)Nc1nnc(-c2ccccc2)c2ccccc12` (racemic) [73 (DL)]: in the test with platelet aggregation [1] (10^-7 M), the inhibition at 0.1 µM was found to be 93.3%.

Regarding `Cc1cccc(C(C)(C)Nc2nnc(-c3ccccc3)c3ccccc23)c1` [compound 167], in the test with platelet aggregation [1] (10^-6 M), the inhibition at 1 µM was 100%. The inhibition at 0.1 µM in the test with platelet aggregation [1] (10^-7 M) came to 100%.

Regarding `CC(C)C(Nc1nnc(-c2ccccc2)c2ccccc12)c1ccccc1` (racemic) [4 (DL)], the inhibition at 1 µM in the test on platelet aggregation [1] (10^-6 M) was 96.6%. The inhibition at 0.1 µM in the test with platelet aggregation [1] (10^-7 M) came out at 49.3%.

Take `CC(Nc1nnc(-c2ccc(Cl)cc2)c2ccccc12)c1ccccc1` (racemic) [34 (DL)]: the inhibition at 1 µM in the test on platelet aggregation [1] (10^-6 M) stood at 100%.

Consider `CC(C)(Nc1nnc(-c2ccccc2)c2ccccc12)c1ccccc1` [Compound No. 119, 1-α,α-dimethylbenzylamino-4-phenylphthalazine], for which the inhibition at 0.1 µM with platelet aggregation [1] (10^-7 M) is 93%.

Turning to `Cc1ccccc1C(C)Nc1nnc(-c2ccccc2)c2ccccc12` (racemic) [58 (DL)], the inhibition at 0.1 µM in the test on platelet aggregation [1] (10^-7 M) came out at 89.9%.

With `CCCC(Nc1nnc(-c2ccccc2)c2ccccc12)c1ccccc1` (racemic) [3 (DL)], the inhibition at 0.3 µM in the test on platelet aggregation [1] stood at 96.8%. Moreover, the inhibition at 0.1 µM in the test on platelet aggregation [1] (10^-7 M) came to 65.9%.

As to `CC(C)(C)C(Nc1nnc(-c2ccccc2)c2ccccc12)c1ccccc1` (racemic) [8 (DL)], the inhibition at 1 µM with platelet aggregation [1] (10^-6 M) amounted to 100%. In addition, in the test with platelet aggregation [1] (10^-7 M), the inhibition at 0.1 µM stood at 100%. The “ex vivo Inhibitory ratio (p.o.)” value in the test with platelet aggregation [2] (1 mg/kg p.o.) is reported as 22.0%; in the test with platelet aggregation [2] (3 mg/kg p.o.), 35.1%; in the test with platelet aggregation [2] (10 mg/kg p.o.) it was 69.9%.

Take `CC(Nc1nnc(-c2ccccc2)c2ccccc12)c1ccccc1` (racemic) [1 (DL)]: the inhibition at 1 µM in the test with platelet aggregation [1] (10^-6 M) turned out to be 84%. In addition, the inhibition at 0.1 µM in the test on platelet aggregation [1] (10^-7 M) worked out at 72.2%. The “ex vivo Inhibitory ratio (p.o.)” value in the test on platelet aggregation [2] (1 mg/kg p.o.) turned out to be 76.2%; in the test with platelet aggregation [2] (3 mg/kg p.o.) it was 79.8%.

Consider `Clc1ccccc1CN1CCc2sccc2C1` [Ticlopidine, reference compound], for which the “Cardiac infarction inhibitory ratio” value in test [3] (30 mg/kg p.o.) is listed as 10.1%.
